Key:
[1] = Cytotoxicity against HEL cells assessed as alteration in cell morphology; format: cell-based; conditions: human
[2] = Cytotoxicity against HEL cells; format: cell-based; conditions: human
[3] = system: Human alphaherpesvirus 3; experiment: Antiviral activity against TK+ VZV OKA in HEL cells after 5 days; format: functional, organism-based; conditions: Human alphaherpesvirus 3, OKA, 120 h
[4] = system: Human alphaherpesvirus 3; experiment: Antiviral activity against TK+ VZV YS in HEL cells after 5 days; format: functional, organism-based; conditions: Human alphaherpesvirus 3, YS, 120 h
[5] = system: Human alphaherpesvirus 3; experiment: Antiviral activity against TK- VZV 07 in HEL cells after 5 days; format: functional, organism-based; conditions: Human alphaherpesvirus 3, 07, HEL, 120 h
[6] = Inhibition of VZV-TK catalyzed dThd phosphorylation; parameters: species or system Human alphaherpesvirus 3
[7] = system: Human alphaherpesvirus 3; experiment: Antiviral activity against TK- VZV YS in HEL cells after 5 days; format: functional, organism-based; conditions: Human alphaherpesvirus 3, YS, 120 h

SMILES	MCC [1] [µM]	CC50 [2] [µM]	EC50 [3] [µM]	EC50 [4] [µM]	EC50 [5] [µM]	IC50 [6] [µM]	EC50 [7] [µM]
Nc1nc2c(ncn2COCCO)c(=O)[nH]1 [ACYCLOVIR]	> 200	> 200	–	–	–	–	–
CCCCCc1ccc(-c2cc3cn([C@@H]4C[C@H](CO)[C@@H](O)C4)c(=O)nc3o2)cc1	> 50	> 50	0.49	0.28	> 50	44	–
CCCCCc1ccc(-c2cc3cn([C@H]4C[C@H](O)[C@@H](CO)O4)c(=O)nc3o2)cc1 [CF1743]	> 20	–	–	–	–	–	–
O=c1[nH]c(=O)n([C@H]2C[C@H](O)[C@@H](CO)O2)cc1/C=C/Br [BRIVUDINE]	> 200	> 200	0.005	0.005	> 200	1.3	> 200

Source: ChEMBL document CHEMBL1138364 (J Med Chem, 2007)
